# Like-named read-outs stand apart in the source and are kept apart here.
# Tests used:
# Panc-2H4 cells = assay: Human Panc-2H4 insulin suppression assay; format: cell-based
# From the text: Two different assays for “classical” sstr2 functions were adopted: (1) cultured foetal rat pituitary cells secreted growth hormone which is inhibited by sstr2 agonists in a dose-dependent fashion and (2) selected glucose-sensitive sub-clones of the human Panc-1 cell line secrete insulin which is inhibited by sstr2 agonists in a dose-dependent fashion.
# Glucose-sensitive sub-clones of the human Panc-1, a cell line derived from a pleiomorphic epithelioid carcinoma of the exocrine pancreas, were obtained essentially as described by Hamil et al. (2008) Biomed. Sci. Instrum. 44:441-6. Briefly, Panc-1 cells were subcultured in 24 well plates, and the medium was supplemented with an additional 5% glucose. […] The resulting sub-lines were then tested for glucose sensitivity by preparing wells of a 96-well plate (5×10^4 cells per well) which were then exposed to cultured medium containing a range of glucose concentrations (low glucose DMEM, DMEM, DMEM+1% glucose, DMEM+2.5% glucose and DMEM+5% glucose). After 24 hrs incubation, the conditioned medium was collected and assayed for insulin secretion by ELISA (Linco; cat# EZHI-14K) in accordance with the manufacturer's instructions. […] Further 96 well plates were prepared using Panc-2H4 (5×10^4 cells per well) in DMEM. After 24 hrs, the medium was switched to DMEM+5% glucose containing various test agents at various concentrations (triplicate wells per condition). After a further 24 hrs, the conditioned medium was harvested and the concentration of insulin was determined by ELISA as described above.
# Results were reported as the mean SD, expressed as the fold change from cells in the presence of vehicle only.
# [1] = test system: rat peripheral blood leukocytes; assay: Rat chemokine-induced PBMC migration assay; format: cell-based
# Procedure: Similarly, where human Panc-2H4 cells are used to determine the effect of agents on classical sstr2 targets, the result is compared with the effect of the same agents on chemokine-induced migration of human THP-1 cells. […] For this reason, the ratio of “classical” to “BSCI” activity in Table 3 is calculated separately for rat and human.
# Jurkat-D3B cells = assay: SDF-1α induced migration of Jurkat-D3B cells expressing sstr2; format: cell-based, human; details: Jurkat-D3B versus parental Jurkat
# Procedure: Methods: Total mRNA was prepared from Panc-1 cells (a human pancreas cell line which is well known to express high levels of sstr2) using the RNAqueous 4PCR kit (Ambion, Cat code #1914) in accordance with the manufacturer's instructions. The mRNA was then reverse transcribed (using the RETROscript kit; Ambio) to yield a cDNA preparation. A full length cDNA of the sstr2 gene was then obtained by PCR (using a Peltier PTC-200 thermal cycler using the following cycle times and conditions: 94° C. for 2 min, followed by 30 cycles of 94° C., for 30 sec, 55° C. for 30 sec, 72° C. for 1 min and finally 72° C. for 10 min), and isolated by preparative gel electrophoresis. The sequence of the sstr2 cDNA was confirmed by sequencing. The sstr2 cDNA was treated with EcoRI and Xhol to generate sticky ends, which allowed directional cloning into the polylinker of the plasmid pcDNA3.1+ (Invitrogen) followed by ligation ([…] ligation reactions were run with 400 T4 DNA ligase (New England Biolabs) and the maximal amounts of DNA with an insert:plasmid ratio of 3:1 in ligase buffer incubated overnight at 13° C.). […]
# A number of individual cell lines were obtained in this way, which expressed significant levels of sstr2 on the cell surface, detected by flow cytometry using the human-sstr2 antibody (Sigma, 50694; see Example 3 for details of the flow cytometry protocol used). […]
# TNF-alpha = assay: Sub-lethal endotoxemia model, serum TNF-alpha after LPS; format: in vivo, mouse; details: dose-dependent; BN83250 s.c., valerolactam oral gavage
# Procedure: We selected the sub-lethal endotoxemia model in mouse, because this has been well characterised in our laboratory (see for example Fox et al. (2002) J. Med. Chem. 45:360-70; Fox et al. (2005) J. Med. Chem. 48:867-74). The extent of systemic inflammation in response to a single intraperitoneal injection of bacterial lipopolysaccharide (LPS) can be estimated by measuring serum TNF-alpha 2 hours post challenge.
# Methods: Mice (CD1 strain; adult males; 6 per group) were treated with BSCI (in an appropriate vehicle) or with vehicle alone by an appropriate route. […] Simultaneously, one set of mice at each BSCI concentration received BIM 23627 at 4 mg/animal (120 mg/kg) by sub-cutaneous injection (a treatment condition known to suppress classical sstr2-mediated signalling, such as GH release, in rats; Tulipano et al. (2002) 143:1218-24). Between 30 mins and 1 hour after dosing (a period when a maximal plasma concentration of BSCI has been achieved), the inflammatory challenge was elicited by intraperitoneal injection of 750 μg of LPS (Sigma; L4130 lot#024K4077; 900,000 EU/mg).
# After a further 2 hours, the animals were sacrificed by CO2 asphyxiation, and blood was drawn by cardiac puncture. Serum was prepared by conventional methods, and the level of TNF-alpha in serum was measured using an ELISA (R&D Systems; Murine Quantikine code# MTA00) performed in accordance with the manufacturer's instructions.
substance,measurement,setting,value
"(S)-3-(2′,2′-dimethyldodecanoyl)amino-caprolactam [BN83250]",EC50,"Panc-2H4 cells; Table 3, read-out: Human Panc-2H4 insulin suppression assay ED50",1000 nM
same,Human Panc-2H4 insulin suppression assay Max effect,"Panc-2H4 cells; Table 3, suppression compared to vehicle",28%
same,Panc-2H4 insulin suppression assay Max Effect,Panc-2H4 cells; Table 5,28%
same,EC50,"Panc-2H4 cells; Table 5, read-out: Panc-2H4 insulin suppression assay (“classical” target) ED50",1000 nM
same,inhibition of insulin secretion by Panc-2H4,Panc-2H4 cells; highest concentrations tested,None of these agents inhibited insulin secretion
same,"“Classical”:“BSCI” potency ratio, Rat",[1]; PBMC migration ED50 versus pituicyte GH ED50,0.0009
same,Rat chemokine-induced PBMC migration assay Max effect,[1]; Table 3,100%
same,increase in BSCI sensitivity by ectopic expression of sstr2,Jurkat-D3B cells,more than 100 fold
same,inhibition of LPS-induced systemic inflammation,TNF-alpha,dramatically inhibited

# — patent US20120115742A1, “METHODS FOR IDENTIFICATION” (Cambridge Enterprise Limited, priority 2009, published 2012)
